Data from patent US20120214847A1, “2-[1-PHENYL-5-HYDROXY-4a-SUBSTITUTED-HEXAHYDROCYCLOPENTA[F]INDAZOL-5-YL]ETHYL PHENYL DERIVATIVES AS GLUCOCORTICOID RECEPTOR LIGANDS” (Merck Sharp & Dohme Corp., priority 2009, published 2012).

Molecular target: T1, human GR (Homo sapiens, UniProt P04150)
T1 construct: naturally expresses the human GR; endogenous in cells
T1 sequence (P04150 1-777): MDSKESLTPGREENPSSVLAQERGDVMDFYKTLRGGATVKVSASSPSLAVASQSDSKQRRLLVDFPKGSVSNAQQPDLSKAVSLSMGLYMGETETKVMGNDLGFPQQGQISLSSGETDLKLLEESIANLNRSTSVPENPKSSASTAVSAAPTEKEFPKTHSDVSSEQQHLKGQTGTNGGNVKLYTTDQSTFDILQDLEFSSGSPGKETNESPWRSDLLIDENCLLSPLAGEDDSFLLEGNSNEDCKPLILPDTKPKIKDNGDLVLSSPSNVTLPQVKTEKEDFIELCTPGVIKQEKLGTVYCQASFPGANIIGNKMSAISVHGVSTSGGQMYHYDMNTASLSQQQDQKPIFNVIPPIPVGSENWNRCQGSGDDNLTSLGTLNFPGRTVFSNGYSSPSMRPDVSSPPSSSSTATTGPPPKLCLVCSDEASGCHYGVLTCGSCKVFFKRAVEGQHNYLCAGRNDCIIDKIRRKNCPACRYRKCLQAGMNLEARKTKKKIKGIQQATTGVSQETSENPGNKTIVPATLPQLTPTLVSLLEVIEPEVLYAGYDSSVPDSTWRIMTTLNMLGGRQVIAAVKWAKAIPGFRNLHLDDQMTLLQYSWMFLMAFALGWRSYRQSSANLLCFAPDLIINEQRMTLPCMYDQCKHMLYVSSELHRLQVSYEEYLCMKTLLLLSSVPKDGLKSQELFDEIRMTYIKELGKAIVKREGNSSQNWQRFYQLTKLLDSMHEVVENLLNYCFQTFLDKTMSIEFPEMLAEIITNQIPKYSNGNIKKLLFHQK
Test: Transrepression assay (GITAR), TNFα-β-lactamase reporter in U937 cells
Type: cell-based
Details: for EC50: U937 cells, IP = inflection point; for Emax: U-937, U937 cells, activity repressed by 100 nM dexamethasone alone set as 100%
How it was run: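 U937 cells stably carrying TNFα promoter–β-lactamase, endogenous GR, preincubated with compound 30–45 min at 37° C., then stimulated with 5 ng/ml PMA plus 100 ng/ml LPS for ~18 h. CCF2-AM read-out; repression by 100 nM dexamethasone set as 100%.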

EC50 [nM]	Emax [%]	SMILES
2	87	NC(=O)c1c(C(F)(F)F)ccnc1CC[C@]1(O)CCC2=Cc3c(cnn3-c3ccc(F)cc3)C[C@@]21C1CC1 [Example 55, 2-{2-[(4aR,5R)-4a-Cyclopropyl-1-(4-fluorophenyl)-5-hydroxy-1,4,4a,5,6,7-hexahydrocyclopenta[f]indaozol-5-yl]ethyl}-4-(trifluoromethyl)pyridine-3-carboxamide]
111	74	CC[C@]12Cc3cnn(-c4ccc(F)cc4)c3C=C1CC[C@@]2(O)CC(O)c1ccc(F)cn1 (single isomer, unassigned) [Example 69a]
38	83	CC[C@]12Cc3cnn(-c4ccc(F)cc4)c3C=C1CC[C@@]2(O)CCc1ccccc1S(=O)(=O)C(C)C [Example 40, (4aS,5R)-4a-Ethyl-1-(4-fluorophenyl)-5-{2-[2-(propan-2-ylsulfonyl)phenyl]ethyl}-1,4,4a,5,6,7-hexahydrocyclopenta[f]indazol-5-ol]
48	77	COc1ccnc(CC[C@]2(O)CCC3=Cc4c(cnn4-c4ccc(F)cc4)C[C@@]32C2CC2)c1C(N)=O [Example 54, 2-{2-[(4aR,5R)-4a-Cyclopropyl-1-(4-fluorophenyl)-5-hydroxy-1,4,4a,5,6,7-hexahydrocyclopenta[f]indazol-5-yl]ethyl}-4-methoxypyridine-3-carboxamide]
